The values below come from patent publication US20220348572A1, “BRIDGED HETEROCYCLYL-SUBSTITUTED PYRIMIDINE COMPOUND, PREPARATION METHOD THEREFOR, AND PHARMACEUTICAL USE THEREOF” (The National Institutes of Pharmaceutical R&D Co., Ltd., priority 2019, published 2022).

Structures are written as SMILES. A value given as a limit tells only on which side of the number the result lay.

The assay concerns the target T1, JAK1 kinase (Homo sapiens, UniProt P23458).
T1 construct: purchased Invitrogen PV4744
Nature of the assay: In vitro inhibitory activity on JAK1 kinase (ADP-Glo Kinase Assay). It counts as biochemical. As to conditions: JAK1 kinase 4 nM, 1 mM ATP. As to the method: Test Example 1: Determination of In Vitro Inhibitory Activity of the Compounds of the Present Invention on JAK1 Kinase Experimental materials: JAK1 kinase (Invitrogen, PV4744), ATP (Promega, V915B), ADP-Glo Kinase Assay (Promega, V9101), IRS1 (Signalchem, 140-58-1000). Sample preparation: The compounds of the present invention and the control product were dissolved in DMSO solvent respectively to formulate into 10 mM initial liquid. The maximum concentration of the compound was 10 μM, 3-fold dilution, 10 concentration gradients, and duplicate wells for each concentration gradient. Experimental processs: 0.1 μL of the compound to be tested was transferred into a 384 reaction plate (PE, 6007290) via Echo and centrifuged at 1000 rpm/min for 1 min. 5 μL JAK1 kinase (final concentration of 4 nM) was transferred into the 384 reaction plate, which was then centrifuged at 1000 rpm/min for 1 min, and incubated at 25° C. for 15 min. 5 μL substrate mixture (1 mM ATP, IRS1 0.05 mg/ml, kinase buffer solution) was transferred into the 384 reaction plate, which was then centrifuged at 1000 rpm/min for 1 min, and incubated at 25° C. for 60 min. 10 μL ADP-Glo was transferred into the 384 reaction plate, which was then centrifuged at 1000 rpm/min for 1 min, and incubated at 25° C. for 40 min. 20 μL test solution was transferred into the 384 reaction plate, which was then centrifuged at 1000 rpm/min for 1 min and incubated at 25° C. for 40 min. RLU (Relative luminescence unit) signal was read by using an Envision multifunctional plate reader. The signal intensity was used to characterize the degree of the kinase activity. […] IC50 value of 0-100 nM is shown as A, IC50 value of 100-300 nM is shown as B, IC50 value of 300-1000 nM is shown as C, and IC50 value which is greater than 1000 nM is shown as D. NT means not tested.

T1 sequence (P23458 866-1154 limits assumed): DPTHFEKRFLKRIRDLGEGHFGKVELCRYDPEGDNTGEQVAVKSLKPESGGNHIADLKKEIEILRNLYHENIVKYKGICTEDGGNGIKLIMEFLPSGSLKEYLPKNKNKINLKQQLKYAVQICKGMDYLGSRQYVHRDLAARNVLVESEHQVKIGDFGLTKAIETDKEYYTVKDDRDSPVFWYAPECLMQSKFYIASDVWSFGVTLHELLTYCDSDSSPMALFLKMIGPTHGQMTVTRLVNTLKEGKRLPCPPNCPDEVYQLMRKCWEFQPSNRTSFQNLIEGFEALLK

As a reminder, the IC50 is the concentration that gives 50% inhibition. A lower IC50 goes with greater potency. `Cn1cc(Nc2nccc(C3=CC4CCC(C3)N4C(=O)C(=O)NCC#N)n2)cn1` (centres unmarked) [Compound 83, N-(cyanomethyl)-2-(3-(2-((1-methyl-1H-pyrazol-4-yl)amino)pyrimidin-4-yl)-8-azabicyclo[3.2.1]oct-2-en-8-yl)-2-oxoacetamide] came in with an IC50 of over 1000 nM. The result for `Cn1cc(Nc2ncc(Cl)c(C3=C[C@@H]4CC[C@H](C3)N4C(=O)[C@@H]3CC3(F)F)n2)cn1` [Compound 23-a, ((1S,5R)-3-(5-chloro-2-((1-methyl-1H-pyrazol-4-yl)amino)pyrimidin-4-yl)-8-azabicyclo[3.2.1]oct-2-en-8-yl)((S)-2,2-difluorocyclopropyl)methanone] reads under 100 nM; that for `O=C([C@@H]1CC1(F)F)N1C2C=C(c3ccnc(Nc4cnn(C5CC5)c4)n3)CC1CC2` (stereo partly drawn) [Compound 36, (3-(2-((1-cyclopropyl-1H-pyrazol-4-yl)amino)pyrimidin-4-yl)-8-azabicyclo[3.2.1]oct-2-en-8-yl)((S)-2,2-difluorocyclopropyl)methanone], 100 to 300 nM; that for `CCCS(=O)(=O)N1CC(N2C3C=C(c4ccnc(Nc5cnn(C)c5)n4)CC2CC3)C1` (centres unmarked) [Compound 84, N-(1-methyl-1H-pyrazol-4-yl)-4-(8-(1-(propansulfonyl)azetidin-3-yl)-8-azabicyclo[3.2.1]oct-2-en-3-yl)pyrimidin-2-amine], over 1000 nM. The result for `COC1CC(C(=O)N2C3C=C(c4ccnc(Nc5cnn(C)c5)n4)CC2CC3)C1` (centres unmarked) [Compound 80, (3-methoxycyclobutyl)(3-(2-((1-methyl-1H-pyrazol-4-yl)amino)pyrimidin-4-yl)-8-azabicyclo[3.2.1]oct-2-en-8-yl)methanone] reads over 1000 nM. The result for `Cn1cc(Nc2nccc(C3=CC4CCC(C3)N4C(=O)CCC(F)(F)F)n2)cn1` (centres unmarked) [Compound 5, 4,4,4-trifluoro-1-(3-(2-((1-methyl-1H-pyrazol-4-yl)amino)pyrimidin-4-yl)-8-azabicyclo[3.2.1]oct-2-en-8-yl)butan-1-one] reads 300 to 1000 nM; that for `Cc1cnc(Nc2cnn(C)c2)nc1C1=C[C@H]2CC[C@@H](C1)N2C(=O)[C@@H]1CC1(F)F` [Compound 22-b, ((S)-2,2-difluorocyclopropyl)((1R,5S)-3-(5-methyl-2-((1-methyl-1H-pyrazol-4-yl)amino)pyrimidin-4-yl)-8-azabicyclo[3.2.1]oct-2-en-8-yl)methanone], under 100 nM. The compound `Cc1cnc(Nc2cnn(C)c2Cl)nc1C1=CC2CCC(C1)N2C(=O)NCC(F)(F)F` (centres unmarked) [Compound 32, 3-(2-((5-chloro-1-methyl-1H-pyrazol-4-yl)amino)-5-methylpyrimidin-4-yl)-N-(2,2,2-trifluoroethyl)-8-azabicyclo[3.2.1]oct-2-ene-8-carboxamide] returned an IC50 of 100 to 300 nM. The same measure for `Cn1cc(Nc2ncc(F)c(C3=C[C@H]4CC[C@@H](C3)N4C(=O)NCC(F)(F)F)n2)cn1` [Compound 12-b, (1R,5S)-3-(5-fluoro-2-((1-methyl-1H-pyrazol-4-yl)amino)pyrimidin-4-yl)-N-(2,2,2-trifluoroethyl)-8-azabicyclo[3.2.1]oct-2-ene-8-carboxamide]: under 100 nM; for `Cc1cnc(Nc2cnn(C)c2)nc1C1=C[C@@H]2CC[C@H](C1)N2C(=O)NCC(F)(F)F` [Compound 19-a, (1S,5R)-3-(5-methyl-2-((1-methyl-1H-pyrazol-4-yl)amino)pyrimidin-4-yl)-N-(2,2,2-trifluoroethyl)-8-azabicyclo[3.2.1]oct-2-ene-8-carboxamide]: under 100 nM. The same measure for `Cn1cc(Nc2nccc(C3=CC4CCC(C3)N4C(=O)C3CC3c3ccccc3)n2)cn1` (centres unmarked) [Compound 59]: 300 to 1000 nM. The result for `Cc1cnc(Nc2cnn(C)c2)nc1C1=C[C@@H]2CC[C@H](C1)N2C(=O)[C@@H]1CC1(F)F` [Compound 22-a, ((S)-2,2-difluorocyclopropyl)((1S,5R)-3-(5-methyl-2-((1-methyl-1H-pyrazol-4-yl)amino)pyrimidin-4-yl)-8-azabicyclo[3.2.1]oct-2-en-8-yl)methanone] reads 100 to 300 nM; that for `Cn1cc(Nc2nccc(C3=CC4CCC(C3)N4C(=O)NC3CC3(F)F)n2)cn1` (centres unmarked) [Compound 14, N-(2,2-difluorocyclopropyl)-3-(2-((1-methyl-1H-pyrazol-4-yl)amino)pyrimidin-4-yl)-8-azabicyclo[3.2.1]oct-2-ene-8-carboxamide], 100 to 300 nM. Compound `Cn1cc(Nc2ncc(S(C)(=O)=O)c(C3=CC4CCC(C3)N4C(=O)NCC(F)(F)F)n2)cn1` (centres unmarked) [Compound 34, 3-(2-((1-methyl-1H-pyrazol-4-yl)amino)-5-(methylsulfonyl)pyrimidin-4-yl)-N-(2,2,2-trifluoroethyl)-8-azabicyclo[3.2.1]oct-2-ene-8-carboxamide] gave an IC50 of over 1000 nM. The result for `Cn1cc(Nc2nccc(C3=CC4CCC(C3)N4C(=O)C3CC(CO)C3)n2)cn1` (centres unmarked) [Compound 81, (3-(hydroxymethyl)cyclobutyl)(3-(2-((1-methyl-1H-pyrazol-4-yl)amino)pyrimidin-4-yl)-8-azabicyclo[3.2.1]oct-2-en-8-yl)methanone] reads over 1000 nM.

`Cn1cc(Nc2nccc(C3=CC4CCC(C3)N4C(=O)NCCOC(F)(F)F)n2)cn1` (centres unmarked) [Compound 58, 3-(2-((1-methyl-1H-pyrazol-4-yl)amino)pyrimidin-4-yl)-N-(2-(trifluoromethoxy)ethyl)-8-azabicyclo[3.2.1]oct-2-ene-8-carboxamide] yielded an IC50 of 100 to 300 nM.

In turn, `Cn1cc(Nc2nccc(C3=CC4CCC(C3)N4C(=O)CC3CC(F)(F)C3)n2)cn1` (centres unmarked) [Compound 79, 2-(3,3-difluorocyclobutyl)-1-(3-(2-((1-methyl-1H-pyrazol-4-yl)amino)pyrimidin-4-yl)-8-azabicyclo[3.2.1]oct-2-en-8-yl)-1-acetone] yielded an IC50 of under 100 nM. The same measure for `Cc1cnc(Nc2cnn(CC(C)(C)O)c2)nc1C1=C[C@@H]2CC[C@H](C1)N2C(=O)NCC(F)(F)F` (single isomer, unassigned) [Compound 29-a]: under 100 nM; for `Cn1cc(Nc2nccc(C3=CC4CCC(C3)N4C(=O)C3(C(F)(F)F)CC3)n2)cn1` (centres unmarked) [Compound 52, (3-(2-((1-methyl-1H-pyrazol-4-yl)amino)pyrimidin-4-yl)-8-azabicyclo[3.2.1]oct-2-en-8-yl)(1-(trifluoromethyl)cyclopropyl)methanone]: over 1000 nM. The result for `Cn1cc(Nc2nccc(C3=CC4CCC(C3)N4C(=O)[C@@H]3C[C@H]3C#N)n2)cn1` (stereo partly drawn) [Compound 47, (1R,2R)-2-(3-(2-((1-methyl-1H-pyrazol-4-yl)amino)pyrimidin-4-yl)-8-azabicyclo[3.2.1]oct-2-ene-8-formyl)cyclopropane-1-carbonitrile] reads 100 to 300 nM; that for `CC(C)n1cc(Nc2nccc(C3=CC4CCC(C3)N4C(=O)[C@@H]3CC3(F)F)n2)cn1` (stereo partly drawn) [Compound 46, ((S)-2,2-Difluorocyclopropyl)(3-(2-((1-isopropyl-1H-pyrazol-4-yl)amino)pyrimidin-4-yl)-8-azabicyclo[3.2.1]oct-2-en-8-yl)methanone], 100 to 300 nM; that for `Cn1cc(Nc2nccc(C3=CC4CCC(C3)N4C3(CC#N)CN(C(=O)NCC(F)(F)F)C3)n2)cn1` (centres unmarked) [Compound 86, 3-(cyanomethyl)-3-(3-(2-((1-methyl-1H-pyrazol-4-yl)amino)pyrimidin-4-yl)-8-azabicyclo[3.2.1]oct-2-en-8-yl)-N-(2,2,2-trifluoroethyl)azetidine-1-carboxamide], over 1000 nM. The same measure for `Cn1cc(Nc2nccc(C3=CC4CCC(C3)N4S(=O)(=O)CCC(F)(F)F)n2)cn1` (centres unmarked) [Compound 6, N-(1-methyl-1H-pyrazol-4-yl)-4-(8-((3,3,3-trifluoropropyl)sulfonyl)-8-azabicyclo[3.2.1]oct-2-en-3-yl)pyrimidin-2-amine]: over 1000 nM. Regarding `Cn1cc(Nc2nccc(C3=CC4CCC(C3)N4C(=O)C(=O)NCC(F)(F)F)n2)cn1` (centres unmarked) [Compound 82, 2-(3-(2-((1-methyl-1H-pyrazol-4-yl)amino)pyrimidin-4-yl)-8-azabicyclo[3.2.1]oct-2-en-8-yl)-2-oxo-N-(2,2,2-trifluoroethyl)acetamide], the IC50 fell in the range of 300 to 1000 nM.

The compound `CC(C)(O)Cn1cc(Nc2nccc(C3=CC4CCC(C3)N4C(=O)[C@@H]3CC3(F)F)n2)cn1` (stereo partly drawn) [Compound 41, ((S)-2,2-Difluorocyclopropyl)(3-(2-((1-(2-hydroxy-2-methylpropyl)-1H-pyrazol-4-yl)amino)pyrimidin-4-yl)-8-azabicyclo[3.2.1]oct-2-en-8-yl)methanone] gave an IC50 of 100 to 300 nM.

As to `Cn1cc(Nc2nccc(C3=CC4CCC(C3)N4C(=O)C(C)(C)C(F)(F)F)n2)cn1` (centres unmarked) [Compound 68, 3,3,3-trifluoro-2,2-dimethyl-1-(3-(2-((1-methyl-1H-pyrazol-4-yl)amino)pyrimidin-4-yl)-8-azabicyclo[3.2.1]oct-2-en-8-yl)acetone], the IC50 was in the range of 300 to 1000 nM.
